The values below come from patent US12569508B2, “Antimicrobial compositions and methods of use” (priority 2020, dated 2026).

One experiment has as its system PAO1 biofilm on CFBE41o−. The experiment in a line: Chronic infection model CFBE41o− and PAO1: bacterial counts. The class given is cell-based, P. aeruginosa. As to the method: A chronic infection model was developed which cultures P. aeruginosa biofilm on top of the bronchial CF epithelium cells (CFBE41o−) at an air-liquid interface. It is a biologically relevant, 3D model that resembles the infected lungs of CF patients.
To assess the activity and toxicity or formulations, the CFBE41o− cell line was seeded on Transwell® inserts (0.05×10^6) at the liquid-liquid interface (500 μL apical and 1500 μL basolateral) on day 0. On day 3, the apical side media was removed, and the basolateral side was replaced with 500 μL of media. On day 7, the transepithelial electrical resistance (TEER) was measured through adding 500 μL to the apical chamber of one well and replacing the basolateral side with 1500 μL. The transferred biofilm model, described above, was employed to transfer the PAO1 biofilm on top of the CFBE41o− cell line in the apical compartment of the Transwells® on day 7. After 1 h incubation, the supernatant was removed as the biofilm has settled onto the cells.
Using the Aerogen® Pro (vibrating mesh nebuliser) and nebulisation chamber, the treatments were then nebulised on top of the biofilm and CFBE41o− cell layer. TOB as an unformulated solution or loaded in the MO-LCNPs were dosed at 10 μg, which was equivalent to 100 μL of 3.32 mg/mL for unformulated TOB and 2.50 mg/mL for MO-LCNPs loaded with TOB. The treatments were prepared by diluting the stock solution/LCNPs suspension to the required concentration in KRB buffer. Each time the nebuliser was first rinsed with KRB buffer and the Transwell® to be dosed was transfered to a clean 12 well plate. The treatment was nebulised following a 30 second deposition waiting time. After all treatments were dosed, the Transwells® were replaced to their original well that included fresh MEM media supplemented with 1% arginine (500 μL) and incubated for the required time at 37° C.
At the time points 24 h and 48 h, different read outs were obtained, including bacterial counts, viability of cells and barrier integrity. […] The plates were incubated for 18 h at 30° C. before the colonies of bacteria were counted.

Experiment [1] deals with 6 mm full-thickness wound infected with P. aeruginosa. The experiment in a line: Chronic full-thickness wound infection model: macroscopic and microscopic wound healing. The class given is in vivo, Balb/c mice. As for the experimental part: Following the same procedure as above, male and female mice were wounded with a 6 mm circular full-thickness wound under anaesthesia and pain relief. […] Treatments were repeated every 24 h for three days and monitored for the bacterial burden and digital photographs. On day six, mice were sacrificed as described above. Digital photographs of the wounds that were taken daily (day zero to six) were used for the macroscopic assessment of healing using ImageJ software. The images were calibrated to a ruler to measure the wounds length, gape and surface area, as previously described (Abbott C A et al., 2013, supra). The microscopic analysis was completed with histology assessments. Following overnight fixation in 4% (v/v) formaldehyde, collected wound halves were routinely processed into paraffin, and 4 μm thick sections were cut using a semi-automated rotary microtome (HistoCore MultiCut, Leica Biosystems, Melbourne, Australia). The sections were stained for haematoxylin and eosin using established protocols (Kopecki, Z., et al., 2009, supra). Following, all sections were imaged via […] slide scanner, Hamamatsu Photonics, Japan) and analysed using NDP.view2 Viewing software (Hamamatsu Photonics, Japan) to microscopically assess the healing via measurement of wound length, gape and percentage of wound re-epithelisation following previously used protocols ([…]., et al., 2021, supra).

For experiment [2], the system named is PAO1 biofilm (72 h, transferred). In words: Transferred biofilm model. The class given is cell-based, P. aeruginosa. The conditions noted are these: 15 μg/mL TOB; 0.05 mg/mL MO-LCNPs; 24 h. As for the experimental part:
Taking into account the toxicity data of the MO-LCNPs, additional biofilm activity studies were conducted to ensure a non-toxic concentration of MO-LCNPs maintained the activity of TOB in the MBEC Assay® PAO1 biofilm model. A variation in this biofilm model was employed to contrast the effect of the MO-LCNPs compared to the standard, MBEC® model. Briefly, from an overnight culture, PAO1 was diluted in M63 media to an OD of 0.01 in 500 μL in 24 well plates and incubated for 72 h at 37° C. to form biofilms. Breath seals were used to permit gas exchange during the 72 h incubation period. The 72 h biofilms were then washed with 200 μL PBS to remove planktonic bacteria. Then, using 500 μL of M63 buffer, the biofilms was scraped off from the bottom of the 24-well plate using a 1 mL pipette tip and transferred into a fresh plate. This formed microcolonies of biofilm that closely resembles the clinical environment. The treatments were then added on top of the biofilms and incubated for a further 24 h at 37° C. The treatments included 15 μg/mL of an unformulated TOB solution and TOB loaded in the MO-LCNPs
The amount of Pluronic F-127 in the MO-LCNPs TOB formulation was also varied to determine the effect the surface stabiliser had on the antimicrobial effect. […]

In the case of `NC[C@H]1O[C@H](O[C@H]2[C@H](O)[C@@H](O[C@H]3O[C@H](CO)[C@@H](O)[C@H](N)[C@H]3O)[C@H](N)C[C@@H]2N)[C@H](N)C[C@@H]1O` [unformulated TOB, tobramycin], the P. aeruginosa remaining with PAO1 biofilm on CFBE41o− (24 h after nebulisation, biofilm of 4×10^8 CFU/mL) is given as 7.4×10^3 CFU/mL; with PAO1 biofilm on CFBE41o− (48 h, one nebulised dose), 1.2×10^3 CFU/mL; with PAO1 biofilm on CFBE41o− (48 h, two nebulised doses) it was 5.4×10^1 CFU/mL. The macroscopic dermal gape in experiment [1] (day five) was determined as 88±11%; in experiment [1] (day six), 77±10%. In addition, the “macroscopic wound area (of the original wound)” value in experiment [1] (day five, after two doses) is 66±13%; in experiment [1] (day six, after three doses), 75±18%. Moreover, the “dermal gape (histology)” value in experiment [1] (day six) is on record as 5.2±0.8 mm. The “wound length (histology)” value in experiment [1] (day six, after three doses) came to 7.6±0.9 mm. The same compound returned a wound reepithelization in experiment [1] (day six, histology) of 41±8%. For the same compound, the “reduction in PAO1 load” value in experiment [2] is “two”.
